OCCOc1ccc2ccccc2c1-c1c(OCCO)ccc2ccccc12
solubility (mole fraction)
Settings | 283.15 K | 288.15 K | 293.15 K | 298.15 K | 303.15 K | 308.15 K | 313.15 K | 318.15 K | 323.15 K
in acetone | 0.00658 | 0.00893 | 0.0121 | 0.0153 | 0.0212 | 0.027 | 0.0352 | 0.0441 | 0.0567
in ethyl acetate | 0.00227 | 0.00328 | 0.00464 | 0.00604 | 0.00802 | 0.0104 | 0.0133 | 0.0174 | 0.0229
in ethyl formate | 0.00207 | 0.00284 | 0.00399 | 0.00539 | 0.00721 | 0.00964 | 0.0123 | 0.0161 | 0.0209
in isobutanol | 0.000512 | 0.000733 | 0.00108 | 0.00147 | 0.00209 | 0.00291 | 0.00388 | 0.005 | 0.00655
in isobutyl acetate | 0.00105 | 0.00158 | 0.0022 | 0.00296 | 0.00396 | 0.00518 | 0.00692 | 0.00911 | 0.0117
in isopropanol | 0.000762 | 0.00102 | 0.00132 | 0.00187 | 0.00263 | 0.00351 | 0.00487 | 0.00649 | 0.00847
in methyl acetate | 0.00297 | 0.00423 | 0.00595 | 0.00778 | 0.0102 | 0.0137 | 0.0173 | 0.0218 | 0.0292
in n-butanol | 0.000873 | 0.00119 | 0.00168 | 0.00242 | 0.00317 | 0.00428 | 0.0058 | 0.00782 | 0.0109
in n-butyl acetate | 0.00136 | 0.00186 | 0.00286 | 0.00389 | 0.00486 | 0.00646 | 0.0086 | 0.0108 | 0.0144
in n-pentanol | 0.000827 | 0.00116 | 0.00163 | 0.00227 | 0.00303 | 0.00413 | 0.00551 | 0.00725 | 0.00966
in n-propanol | 0.00111 | 0.00143 | 0.00189 | 0.00268 | 0.00369 | 0.00494 | 0.00644 | 0.00847 | 0.012
in toluene | 0.000885 | 0.00122 | 0.00176 | 0.0025 | 0.00331 | 0.00447 | 0.00595 | 0.00794 | 0.0104

Source: BigSolDB 2.1
